Assay results from patent US11046686B2, “Thiadiazole IRAK4 compounds” (Gilead Sciences, Inc., priority 2018, dated 2021).
pEC50: −log10 of the molar value. Read-outs that look alike come from different tables or passages of the source.

Test system: TNFα
Assay: IRAK4 Monocyte TNFα Cell Based Assay
Parameters: species or system human
Conditions: read-out: EC50 MONO TNF HTRF
Summary of the method: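 Human monocytes (5,000/well) pretreated with compound 1 h at 37 °C (0.1% DMSO final), then stimulated with 50 pg/ml LPS for 4 h. Secreted TNFα measured by TR-FRET two-antibody detection after overnight incubation at room temperature; % control relative to unstimulated and LPS-stimulated wells.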

[1] = human monocytes, second part of Table 2, compounds 33-343, unit inferred

| SMILES | pEC50 [1] | other results |
| --- | --- | --- |
| CNc1cc(-c2ccc3cc(C#N)cnn23)ncc1-c1nnc(N2C[C@H]3CC[C@@H](C2)[C@@H]3NC(C)=O)s1 [Example 292, N-((1R,5S,8s)-3-(5-(6-(3-cyanopyrrolo[1,2-b]pyridazin-7-yl)-4-(methylamino)pyridin-3-yl)-1,3,4-thiadiazol-2-yl)-3-azabicyclo[3.2.1]octan-8-yl)acetamide] | 8.17 | – |
| CN1CCC(C(=O)N2C3CC2CN(c2nnc(-c4cnc(-c5ccc6cc(C#N)cnn56)cc4NC4(C)COC4)s2)C3)CC1 [Example 118, 7-(4((3-methyloxetan-3-yl)amino)-5-(5-(6-(1-methylpiperidine-4-carbonyl)-3,6-diazabicyclo[3.1.1]heptan-3-yl)-1,3,4-thiadiazol-2-yl)pyridin-2-yl)pyrrolo[1,2-b]pyridazine-3-carbonitrile] | – | pEC50 (Homo sapiens, Monocyte): 7.54 |
| CC(=O)NC1CC2CC1CC2c1nnc(-c2cnc(-c3ccc4cc(C#N)cnn34)cc2NC(C)C)s1 (stereo not shown) [Example 285, N-(5-(5-(6-(3-cyanopyrrolo[1,2-b]pyridazin-7-yl)-4-(isopropylamino)pyridin-3-yl)-1,3,4-thiadiazol-2-y)bicyclo[2.2.1]heptan-2-yl)acetamide] | 7.17 | – |
| CC1(Nc2cc(-c3ccc4cc(C#N)cnn34)ncc2-c2nnc([C@H]3CC[C@H](NC(=O)C4CC4)CC3)s2)COC1 [Example 158, N-((1r,4r)-4-(5-(6-(3-cyanopyrrolo[1,2-b]pyridazin-7-yl)-4-((3-methyloxetan-3-yl)amino)pyridin-3-yl)-1,3,4-thiadiazol-2-yl)cyclohexyl)cyclopropanecarboxamide] | 7.70 | – |
| CC(C)Nc1cc(-c2ccc3cc(C#N)cnn23)ncc1-c1nnc(N2CCC(C)(O)CC2)s1 [Example 287, 7-(5-(5-(4-hydroxy-4-methylpiperidin-l-yl)-1,3,4-thiadiazol-2-yl)-4-(isopropylamino)pyridin-2-yl)pyrrolo[1,2-b]pyridazine-3-carbonitrile] | 8.01 | – |
| CC(=O)NC1CCC2(CC1)CN(c1nnc(-c3cnc(-c4ccc5cc(C#N)cnn45)cc3NC3COC3)s1)C2 [Example 78, N-(2-(5-(6-(3-cyanopyrrolo[1,2-b]pyridazin-7-yl)-4-(oxetan-3-ylamino)pyridin-3-yl)-1,3,4-thiadiazo1-2-yl)-2-azaspiro[3.5]nonan-7-yl)acetamide] | 8.05 | – |
| CC(C)Nc1cc(-c2ccc3cc(C#N)cnn23)ncc1-c1nnc(C2CCOC2)s1 (stereo not shown) [Compound 322] | 6.38 | – |
| COC(=O)N[C@H]1CC[C@H](c2nnc(-c3cnc(-c4ccc5cc(C#N)cnn45)cc3NC(C)C)s2)CC1 [Example 126, methyl ((1r,4r)-4-(5-(6-(3-cyanopyrrolo[1,2-b]pyridazin-7-yl)-4-(isopropylamino)pyridin-3-yl)-1,3,4-thiadiazol-2-yl)cyclohexyl)carbamate] | 7.58 | – |
| CC(C)Nc1cc(-c2ccc3cc(C#N)cnn23)ncc1-c1nnc(C(=O)N[C@H]2C[C@@H](O)C2)s1 [Example 215, 5-(6-(3-cyanopyrrolo[1,2-b]pyridazin-7-yl)-4-(isopropylamino)pyridin-3-yl)-N-((1s,3s)-3-hydroxycyclobutyl)-1,3,4-thiadiazole-2-carboxamide] | 5.51 | – |
| CC(C)Nc1cc(-c2ccc3cc(C#N)cnn23)ncc1-c1nnc(N2CC3(CCC(C)(O)CC3)C2)s1 [Example 82, 7-(5-(5-(7-hydroxy-7-methyl-2-azaspiro[3.5]nonan-2-yl)-1,3,4-thiadiazo1-2-yl)-4-(isopropylamino)pyridin-2-yl)pyrrolo[1,2-b]pyridazine-3-carbonitrile] | 7.64 | – |
| CC1(O)CCC(c2nnc(-c3cnc(-c4ccc5cc(C#N)cnn45)cc3NC3COC3)s2)CC1 (single isomer, unassigned) [Example 206, 7-(5-(5-(4-hydroxy-4-methylcyclohexyl)-1,3,4-thiadiazol-2-yl)-4-(oxetan-3-ylamino)pyridin-2-yl)pyrrolo[1,2-b]pyridazine-3-carbonitrile] | – | pEC50 (Homo sapiens, Monocyte, human monocytes, second part of Table 2, compounds 33-343, unit inferred): 7.86 |
| CC(C)Nc1cc(-c2ccc3cc(C#N)cnn23)ncc1-c1nnc(C(C)(C)O)s1 [Example 80, 7-(5-(5-(2-hydroxypropan-2-yl)-1,3,4-thiadiazol-2-yl)-4-(isopropylamino)pyridin-2-yl)pyrro1o[1,2-b]pyridazine-3-carbonitrile] | 6.94 | – |
| CC(=O)N[C@]1(C)[C@@H]2CC[C@H]1CN(c1nnc(-c3cnc(-c4ccc5cc(C#N)cnn45)cc3NC(C)C)s1)C2 [Example 155] | 8.13 | – |
| CC(C)Nc1cc(-c2ccc3cc(C#N)cnn23)ncc1-c1nnc(C(=O)N2CC[C@@H](CO)C2)s1 [Example 216] | 7.74 | – |
| CC(C)Nc1cc(-c2ccc3cc(C#N)cnn23)ncc1-c1nnc([C@H]2C[C@@](C)(O)C2)s1 [Example 199, 7-(5-(5-((1s,3s)-3-hydroxy-3-methylcyclobutyl)-1,3,4-thiadiazol-2-yl)-4-(isopropylamino)pyridin-2-yl)pyrrolo[1,2-b]pyridazine-3-carbonitrile] | 7.42 | – |
| CC(=O)N(C)[C@@H]1[C@@H]2CC[C@H]1CN(c1nnc(-c3cnc(-c4ccc5cc(C#N)cnn45)cc3NC(C)C)s1)C2 [Example 300] | 8.28 | – |
| CC(C)Nc1cc(-c2ccc3cc(C#N)cnn23)ncc1-c1nnc(C2CCN(C3COC3)CC2)s1 [Example 138] | 7.82 | – |
| CC(=O)N[C@H]1C[C@H](c2nnc(-c3cnc(-c4ccc5cc(C#N)cnn45)cc3NC3CCOCC3)s2)C1 [Example 201] | 7.46 | – |

Further lines, with some results ahead:

| pEC50 [1] | SMILES | other results |
| --- | --- | --- |
| 8.32 | CC(=O)NC1CCC(c2nnc(-c3cnc(-c4ccc5cc(C#N)cnn45)cc3NC34CCC(O)(CC3)CC4)s2)CC1 (stereo not shown) [Compound 241, N-((1r,4r)-4-(5-(6-(3-cyanopyrrolo[1,2-b]pyridazin-7-yl)-4-((4-hydroxybicyclo[2.2.2]octan-1-yl)amino)pyridin-3-yl)-1,3,4-thiadiazol-2-yl)cyclohexyl)acetamide] | – |
| 8.39 | CC(=O)N[C@@H]1[C@@H]2CC[C@H]1CN(c1nnc(-c3cnc(-c4ccc5cc(C#N)cnn45)cc3NC3(C)CCOCC3)s1)C2 [Compound 272, N-((1R,5S,8s)-3-(5-(6-(3-cyanopyrrolo[1,2-b]pyridazin-7-yl)-4-((4-methyltetrahydro-2H-pyran-4-yl)amino)pyridin-3-yl)-1,3,4-thiadiazol-2-yl)-3-azabicyclo[3.2.1]octan-8-yl)acetamide] | – |
| 8.85 | CC(C)Nc1cc(-c2ccc3cc(C#N)cnn23)ncc1-c1nnc(N2C[C@H]3CC[C@@H](C2)[C@@H]3NC(=O)C(=O)N=S(C)(C)=O)s1 [Example 103, N1-((lR,5S,8s)-3-(5-(6-(3-cyanopyrrolo[1,2-b]pyridazin-7-yl)-4-(isopropylamino)pyridin-3-yl)-1,3,4-thiadiazol-2-yl)-3-azabicyclo[3.2.1]octan-8-yl)-N2-(dimethyl(oxo)-16-sulfanylidene)oxalamide] | – |
| 8.64 | CC(=O)N[C@@H]1[C@@H]2CCC[C@H]1CN(c1nnc(-c3cnc(-c4ccc5cc(C#N)cnn45)cc3NC(C)C)s1)C2 [Example 166, N-((1R,5S,9s)-3-(5-(6-(3-cyanopyrrolo[1,2-b]pyridazin-7-yl)-4-(isopropylamino)pyridin-3-yl)-1,3,4-thiadiazol-2-yl)-3-azabicyclo[3.3.1]nonan-9-yl)acetamide] | – |
| 8.64 | CC(=O)N[C@@H]1[C@@H]2CC[C@H]1CN(c1nnc(-c3cnc(-c4ccc5cc(C#N)cnn45)cc3NC3(C)COC3)s1)C2 [Example 144, N-((1R,5S,8s)-3-(5-(6-(3-cyanopyrrolo[1,2-b]pyridazin-7-yl)-4-((3-methyloxetan-3-yl)amino)pyridin-3-yl)-1,3,4-thiadiazo1-2-yl)-3-azabicyclo[3.2.1]octan-8-yl)acetamide] | – |
| 8.57 | CC(=O)N1C2CCC1CN(c1nnc(-c3cnc(-c4ccc5cc(C#N)cnn45)cc3NC3(C)COC3)s1)C2 [Compound 264] | – |
| 8.39 | CC1(Nc2cc(-c3ccc4cc(C#N)cnn34)ncc2-c2nnc(N3C[C@H]4CC[C@@H](C3)[C@@H]4NC(=O)CN=S(C)(C)=O)s2)COC1 [Example 109, N-((1R,5S,8s)-3-(5-(6-(3-cyanopyrrolo[1,2-b]pyridazin-7-yl)-4-((3-methyloxetan-3-yl)amino)pyridin-3-yl)-1,3,4-thiadiazol-2-yl)-3-azabicyclo[3.2.1]octan-8-yl)-2-((dimethyl(oxo)-16-sulfanylidene)amino)acetamide] | – |
| 8.30 | CC(C)Nc1cc(-c2ccc3cc(C#N)cnn23)ncc1-c1nnc(N2C[C@H]3CC[C@@H](C2)[C@@H]3NC(=O)[C@H]2C[C@](C)(O)C2)s1 [Example 92, (1r,3R)-N-((1R,5S,8s)-3-(5-(6-(3-cyanopyrrolo[1,2-b]pyridazin-7-yl)-4-(isopropylamino)pyridin-3-yl)-1,3,4-thiadiazol-2-yl)-3-azabicyclo[3.2.1]octan-8-yl)-3-hydroxy-3-methylcyclobutane-1-carboxamide] | – |
| 8.59 | CC(C)Nc1cc(-c2ccc3cc(C#N)cnn23)ncc1-c1nnc(N2C[C@H]3CC[C@@H](C2)[C@@H]3NC(=O)N2CCN(S(C)(=O)=O)CC2)s1 [Example 106, N-((1R,5S,8s)-3-(5-(6-(3-cyanopyrrolo[1,2-b]pyridazin-7-yl)-4-(isopropylamino)pyridin-3-yl)-1,3,4-thiadiazol-2-yl)-3-azabicyclo[3.2.1]octan-8-yl)-4-(methylsulfonyl)piperazine-1-carboxamide] | – |
| 8.49 | CC(=O)N[C@H]1CC[C@H](c2nnc(-c3cnc(-c4ccc5cc(C#N)cnn45)cc3N[C@H]3CCC[C@@H](O)C3)s2)CC1 [Compound 245, N-((1S,4r)-4-(5-(6-(3-cyanopyrrolo[1,2-b]pyridazin-7-yl)-4-(((1S,3R)-3-hydroxycyclohexyl)amino)pyridin-3-yl)-1,3,4-thiadiazol-2-yl)cyclohexyl)acetamide] | – |
